Results: ChEMBL document CHEMBL1132558, “A new single-photon emission computed tomography imaging agent for serotonin transporters: [123I]IDAM, 5-iodo-2-((2-((dimethylamino)methyl)phenyl)thio)benzyl alcohol” (J Med Chem, 1999)

How the values were obtained:
[1] = species on record: Rattus norvegicus; experiment: Concentration inhibiting norepinephrine uptake in rat brain synaptosomes.; assay type: functional
[2] = species on record: Rattus norvegicus; experiment: Concentration inhibiting serotonin uptake in rat brain synaptosomes.; assay type: functional
[3] = target: T1, Sodium-dependent dopamine transporter (Homo sapiens, UniProt Q01959); experiment: In vitro binding affinity against Dopamine transporter in LLC-PK1 cell membranes.; assay type: cell-based, Sus scrofa
T1 sequence (Q01959 whole entry): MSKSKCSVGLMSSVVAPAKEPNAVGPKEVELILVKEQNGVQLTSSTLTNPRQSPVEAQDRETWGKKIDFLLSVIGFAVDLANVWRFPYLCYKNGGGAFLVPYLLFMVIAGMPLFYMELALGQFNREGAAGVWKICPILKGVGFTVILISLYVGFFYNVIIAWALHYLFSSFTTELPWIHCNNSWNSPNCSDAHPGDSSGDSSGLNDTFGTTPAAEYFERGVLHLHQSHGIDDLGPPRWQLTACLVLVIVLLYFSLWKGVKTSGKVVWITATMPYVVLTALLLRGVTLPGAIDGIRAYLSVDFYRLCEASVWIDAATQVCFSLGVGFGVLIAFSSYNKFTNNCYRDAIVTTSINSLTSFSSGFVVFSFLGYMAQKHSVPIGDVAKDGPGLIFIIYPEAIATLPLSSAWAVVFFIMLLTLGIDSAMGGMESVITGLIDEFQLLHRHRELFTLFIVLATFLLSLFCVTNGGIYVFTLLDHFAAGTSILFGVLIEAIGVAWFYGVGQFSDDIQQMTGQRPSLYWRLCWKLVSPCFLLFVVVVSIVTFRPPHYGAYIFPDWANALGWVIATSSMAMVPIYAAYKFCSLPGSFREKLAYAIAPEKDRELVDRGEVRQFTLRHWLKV

[4] = target: Sodium-dependent serotonin transporter (Homo sapiens, UniProt P31645); experiment: In vitro binding affinity against Serotonin transporter (SERT) from LLC-PK1 cell membranes.; assay type: cell-based, Sus scrofa
Sodium-dependent serotonin transporter, sequence (P31645 whole entry): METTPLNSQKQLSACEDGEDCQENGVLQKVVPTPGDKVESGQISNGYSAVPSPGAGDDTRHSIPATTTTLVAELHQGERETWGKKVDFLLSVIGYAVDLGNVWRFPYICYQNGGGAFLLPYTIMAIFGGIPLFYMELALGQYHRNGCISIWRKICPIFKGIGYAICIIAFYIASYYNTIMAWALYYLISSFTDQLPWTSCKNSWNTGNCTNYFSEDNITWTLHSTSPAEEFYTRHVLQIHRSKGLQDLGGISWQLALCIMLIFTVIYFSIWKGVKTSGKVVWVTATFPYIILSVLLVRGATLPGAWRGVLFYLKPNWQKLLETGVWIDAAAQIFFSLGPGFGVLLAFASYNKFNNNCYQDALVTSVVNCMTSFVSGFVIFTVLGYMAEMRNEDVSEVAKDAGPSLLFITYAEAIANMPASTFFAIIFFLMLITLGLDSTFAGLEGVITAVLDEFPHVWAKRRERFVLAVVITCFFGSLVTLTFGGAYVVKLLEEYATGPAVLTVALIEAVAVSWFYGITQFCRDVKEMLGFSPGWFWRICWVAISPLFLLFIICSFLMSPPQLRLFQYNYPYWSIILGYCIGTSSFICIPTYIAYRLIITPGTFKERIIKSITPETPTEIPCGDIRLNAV

[5] = target: T1, Sodium-dependent dopamine transporter; experiment: Concentration inhibiting Dopamine transporter
[6] = species on record: Rattus norvegicus; experiment: Concentration inhibiting 5-HT reuptake in rat brain synaptosomes.; assay type: functional

Ki [1] [nM]	Ki [2] [nM]	Ki [3] [nM]	Ki [4] [nM]	Ki [5] [nM]	Ki [6] [nM]	Structure (SMILES)
55	2.1					CN(C)Cc1ccccc1Sc1ccc(Cl)cc1CO
		> 10000	0.097			CN(C)Cc1ccccc1Sc1ccc(I)cc1CO
		> 10000	0.52			CN(C)Cc1ccccc1Sc1ccc(Br)cc1CO
		112		23.5	0.4	CSc1ccc([C@H]2CN3CCC[C@H]3c3ccccc32)cc1
